From US9861094B2, “Composition and method for tissue preservation and embalming” (OGF, priority 2008, dated 2018) come the findings set out here.

For assay [1], the system named is bacteria in the body fluid. The assay can be described thus: bacteriological analyses of body fluid after embalming. From the text:
The results obtained according to the bronopol concentration were as follows:

Another assay concerns bodies of the deceased. The experiment in a line: embalming tests for presentation of the deceased (arterial and cavity injection). Also noted: species or system human. To be noted: 0.6% bronopol; bodies with no particular abnormality. As to the method: For arterial injection, the following compositions were prepared and tested (these compositions are prepared for 1 liter of concentrated solution to which 5 liters of water are added):
This operation uses the method generally used for embalming procedures, namely injection and drainage, said drainage being generally performed in the region of the right heart.
Injection is carried out through the femoral, carotid or axillary arteries.
The amount of fluid injected is approximately 6 liters, but this amount may vary depending on the state of the deceased and the diagnosis made by the embalmer, for example the need for more drainage.
For cavity injection, the following compositions were prepared and tested (these compositions are prepared for 500 ml and used as they are):
This operation uses the method widely practised in embalming procedures, that is, gas and fluid tapping in the region of the thoracic and abdominal cavities, and injection of the composition according to the invention into each of the cavities so that said composition is diffused optimally throughout the cavities concerned.
Still using an identical base of glycerine, ethanol or methanol, tests were carried out using the compositions described in the examples above (compositions (1), (2), (3) and (3a) for arterial injection and compositions (4) and (5) for cavity injection).

Another assay relates to bodies for dissection. The assay can be described thus: embalming of bodies for dissection (injection alone, no tapping). Also noted: species or system human. The settings on record: bronopol 1% by weight, 4 liters injected; dissections 14 and 16 days after death. As to the method: In this type of procedure, no liquid tapping or cavity injection is carried out.
1. Tests were also carried out within the faculty of medicine in the context of the preservation of bodies for dissection.
The results observed are very interesting, knowing that these tests were carried out by injection alone with no tapping.
To obtain optimum preservation of the body, a bronopol concentration of 1% by weight was used for a total injected quantity of 4 liters.
For example, the above-mentioned composition (2) was used on a subject of average build (a person who had been dead for eight days).
Before the test was performed, very marked lividities, large green abdominal marks and sunken eyes (the body had been frozen) were observed.
The product was then injected through the carotid artery in one pass (one times 3.6 liters of water and 400 ml of the above-mentioned composition (2)), for better product dilution (injection total=4 liters) (bronopol concentration=1%).
The subject was moved alternately between the cold storage room (7° C.) and the autopsy table (25° C.).

SMILES strings stand for the structures.

Consider `O=[N+]([O-])C(Br)(CO)CO` [Bronopol, 2-bromo-2-nitropropane-1,3-diol], for which the results for the “Presence of bacteria in the body fluid” value in assay [1] (Bronopol concentration 0.90%), in assay [1] (Bronopol concentration ≦0.80%) and in assay [1] (Bronopol concentration ≧1.2%) were 1 out of 2 cases with bacteria, 7 out of 8 cases with bacteria and 1 out of 3 cases with bacteria, respectively. The “overall result of embalming tests” value with bodies of the deceased was “satisfactory results”. Further, the odour result in the assay on bodies for dissection is listed as “lack of odour”. Also, the “state of preservation of the body and tissue suppleness” value in the assay on bodies for dissection is recorded as “very good results”.
